Patent US20060063210A1, “Histone deacetylase whole cell enzyme assay” (Methylgene, Inc., priority 2004, published 2006)

Assays:
[1] = biological target: T1, recombinant Sirt1 (Homo sapiens, UniProt Q96EB6); assay: recombinant Sirt1 enzyme assay in vitro (Fluor-de-Lys-SirT1 substrate); format: biochemical
T1 construct: purchased Biomol
T1 sequence (Q96EB6 1-747): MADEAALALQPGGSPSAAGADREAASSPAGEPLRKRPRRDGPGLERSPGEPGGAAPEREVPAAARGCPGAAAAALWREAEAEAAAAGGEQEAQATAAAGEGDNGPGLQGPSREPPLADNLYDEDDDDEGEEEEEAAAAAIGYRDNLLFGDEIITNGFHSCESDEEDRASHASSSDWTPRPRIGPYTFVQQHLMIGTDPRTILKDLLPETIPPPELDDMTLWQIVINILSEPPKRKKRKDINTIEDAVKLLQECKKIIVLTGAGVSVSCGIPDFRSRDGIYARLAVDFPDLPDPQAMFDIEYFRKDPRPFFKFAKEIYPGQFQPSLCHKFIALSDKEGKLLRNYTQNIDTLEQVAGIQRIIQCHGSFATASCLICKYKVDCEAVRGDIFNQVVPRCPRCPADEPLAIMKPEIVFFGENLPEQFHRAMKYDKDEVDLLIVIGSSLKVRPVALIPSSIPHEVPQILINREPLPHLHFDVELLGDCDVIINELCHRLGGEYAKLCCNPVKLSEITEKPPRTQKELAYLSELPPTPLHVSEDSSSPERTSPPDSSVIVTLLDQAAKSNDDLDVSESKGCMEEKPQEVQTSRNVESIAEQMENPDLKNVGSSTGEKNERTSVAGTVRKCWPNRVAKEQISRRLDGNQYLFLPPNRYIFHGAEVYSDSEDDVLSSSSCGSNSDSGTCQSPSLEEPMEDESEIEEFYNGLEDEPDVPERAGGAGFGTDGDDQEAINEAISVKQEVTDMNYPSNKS
Excerpt: (§1) Human SirT1, 2, 3 recombinant enzymes were purchased from Biomol (Biomol, Plymouth Meeting, Philadelphia).
(§2) Reaction is read as described in Example 3.

[2] = biological target: T2, recombinant Sirt2 (Homo sapiens, UniProt Q8IXJ6); assay: recombinant Sirt2 enzyme assay in vitro (Fluor-de-Lys-SirT2 substrate); format: biochemical
T2 construct: purchased Biomol
T2 sequence (Q8IXJ6 1-389): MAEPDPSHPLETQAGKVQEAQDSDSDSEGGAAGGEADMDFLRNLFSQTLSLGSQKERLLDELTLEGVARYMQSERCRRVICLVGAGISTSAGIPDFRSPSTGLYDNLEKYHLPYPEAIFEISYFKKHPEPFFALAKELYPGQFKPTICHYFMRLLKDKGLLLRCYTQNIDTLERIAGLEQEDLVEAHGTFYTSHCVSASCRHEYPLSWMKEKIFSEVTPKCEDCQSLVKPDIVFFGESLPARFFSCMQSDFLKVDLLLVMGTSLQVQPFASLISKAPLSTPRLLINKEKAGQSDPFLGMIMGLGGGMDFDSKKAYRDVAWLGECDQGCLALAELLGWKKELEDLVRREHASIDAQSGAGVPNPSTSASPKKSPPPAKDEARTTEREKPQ
Excerpt: as §1, §2

[3] = biological target: T3, recombinant Sirt3 (Homo sapiens, UniProt Q9NTG7); assay: recombinant Sirt3 enzyme assay in vitro (Fluor-de-Lys-SirT2 substrate); format: biochemical; conditions: substrate FldSirt2; activation; read-out: EC50 to activate recombinant Sirt3 in vitro
T3 construct: purchased Biomol
T3 sequence (Q9NTG7 1-399): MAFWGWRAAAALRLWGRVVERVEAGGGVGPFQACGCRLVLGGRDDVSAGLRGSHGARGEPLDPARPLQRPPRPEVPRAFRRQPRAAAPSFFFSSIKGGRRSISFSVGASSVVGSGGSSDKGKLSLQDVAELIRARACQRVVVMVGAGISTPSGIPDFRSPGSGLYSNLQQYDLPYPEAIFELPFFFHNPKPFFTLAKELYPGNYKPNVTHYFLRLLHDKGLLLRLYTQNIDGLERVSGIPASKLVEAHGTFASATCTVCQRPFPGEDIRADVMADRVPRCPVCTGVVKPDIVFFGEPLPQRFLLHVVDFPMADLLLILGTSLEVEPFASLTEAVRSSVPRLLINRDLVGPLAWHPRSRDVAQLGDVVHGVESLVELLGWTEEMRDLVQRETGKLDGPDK
Excerpt: as §1, §2

[4] = biological target: T4, SirT1 (HCT116 cells) (Homo sapiens, UniProt Q96EB6); assay: whole cell sirtuin (SirT1) activity in HCT116 cells with Fluor-de-Lys-SirT1 substrate; format: cell-based; conditions: HCT116 cells
T4 construct: endogenous in cells; host or cells: HCT116
T4 sequence (Q96EB6 1-747): T1 sequence (Q96EB6 1-747)
Excerpt: Cultured cells (HCT116) were trypsinized and counted by trypan blue exclusion. Live cells (2×10^5) were distributed to each well of the 96-well plate. […] Independently, we fixed concentrations of either Fluor-de-Lys-SirT1 substrate or Fluor-de-Lys-SirT2 in whole cells and analyzed the effect of exogeneous NAD+ concentration on whole cell sirtuin activity (FIG. 7b). […] Therefore the reading was done immediately after stopping.
Cultured HCT116 cells were counted and distributed to each well of the 96-well plate. […] After addition of Sirtuin substrate (Fluor-de-Lys-SirT1, 500 uM) or HDAC substrate Boc-Lys(Ac)-AMC (300 uM), the cells are further incubated for an additional 2 hours. Reaction was stopped and read as described in Examples 3 and 6. […] This observation is consistent with our finding in Example 7 that TSA can not inhibit class III (Sirtuins) in vitro.

[5] = system: HDAC (293T cells); assay: whole cell deacetylase (HDAC) assay in 293T cells with Boc-Lys(Ac)-AMC; format: cell-based, human; conditions: for IC50: pre-incubated with inhibitors 16 hours, mean of at least 2 experiments
Description: (§3) Freshly trypsinized cells were dispensed into 96-well black Costar E1A/RIA plates (Corning Inc., Corning, N.Y.). Small molecule substrate Boc-Lys(Ac)-AMC (Bachem Biosciences Inc., King of Prussia, Philadelphia) was added to cell suspension with the final concentration of 300 uM. Cells were placed in 37° C. incubator with 5% CO2 for 90 minutes. Reaction was stopped by adding a freshly prepared Flouor-de-Lys™ deleveloper (Biomol, Plymouth Meeting, Philadelphia) with 1 uM TSA (Biomol) in assay buffer (25 mM Tris, HCl pH8.0, 137 mM NaCl, 2.7 mM KCl, 1 mM MgCl2) plus 1% NP-40. With the presence of 1% NP-40, both excellular and intracellular HDAC activity was measured in cultured cells altogether.
(§4) HDAC enzyme assay in intact cells was carried out as described in Example 3.

[6] = system: HDAC (A549 cells); assay: whole cell deacetylase (HDAC) assay in A549 cells with Boc-Lys(Ac)-AMC; format: cell-based, human; conditions: pre-incubated with inhibitors 16 hours, mean of at least 2 experiments
Description: as §3, §4

[7] = system: HDAC (Du145 cells); assay: whole cell deacetylase (HDAC) assay in Du145 cells with Boc-Lys(Ac)-AMC; format: cell-based, human; conditions: pre-incubated with inhibitors 16 hours, mean of at least 2 experiments
Description: as §3, §4

[8] = system: HDAC (HCT116 cells); assay: whole cell deacetylase (HDAC) assay in HCT116 cells with Boc-Lys(Ac)-AMC; format: cell-based, human
Description: as §3, §4
Cultured HCT116 cells were counted and distributed to each well of the 96-well plate. […] After addition of Sirtuin substrate (Fluor-de-Lys-SirT1, 500 uM) or HDAC substrate Boc-Lys(Ac)-AMC (300 uM), the cells are further incubated for an additional 2 hours. Reaction was stopped and read as described in Examples 3 and 6.

[9] = system: HDAC (Jurkat T cells); assay: whole cell deacetylase (HDAC) assay in Jurkat T cells with Boc-Lys(Ac)-AMC; format: cell-based, human; conditions: pre-incubated with inhibitors 16 hours, mean of at least 2 experiments
Description: as §3, §4

[10] = system: HDAC (Panc-1 cells); assay: whole cell deacetylase (HDAC) assay in Panc-1 cells with Boc-Lys(Ac)-AMC; format: cell-based, human; conditions: pre-incubated with inhibitors 16 hours, mean of at least 2 experiments
Description: as §3, §4

Oc1ccc(C=Cc2cc(O)cc(O)c2)cc1 [Resveratrol]
activation of recombinant Sirt1 in vitro [1]: can activate Sirt1 enzymes in vitro in a dose dependent manner
EC50 ([2]; substrate FldSirt2, activation, read-out: EC50 to activate recombinant Sirt2 in vitro): 912 µM
EC50 [3]: > 2000 µM
activation of whole cell sirtuin (SirT1) activity ([4]; 1.5 hour pre-incubation): could activate whole cell sirtuin (SirT1) activity in a dose-dependent manner

CC(=O)O[C@H]1C(=O)[C@@]2(C)[C@H]([C@H](OC(=O)c3ccccc3)[C@]3(O)C[C@H](OC(=O)[C@H](O)[C@@H](NC(=O)c4ccccc4)c4ccccc4)C(C)=C1C3(C)C)[C@]1(OC(C)=O)CO[C@@H]1C[C@@H]2O [taxol]
effect on HDAC activity in whole cells [5]: no effect on HDAC activity
IC50 [5]: > 50 µM

Nc1ccccc1NC(=O)c1ccc(CNC(=O)OCc2cccnc2)cc1 [MS-275]
IC50 [6]: 0.4 µM
IC50 [7]: 0.3 µM
IC50 ([8]; pre-incubated with inhibitors 16 hours, mean of at least 2 experiments): 3 µM
IC50 [5]: 2 µM
IC50 [9]: 0.3 µM
IC50 [10]: 0.5 µM

CC(/C=C/C(=O)NO)=C\[C@@H](C)C(=O)c1ccc(N(C)C)cc1 [TSA, trichostatin A]
inhibition of whole cell HDAC activity ([8]; Boc-Lys(Ac)-AMC 300 uM): could inhibit whole cell HDAC activity
inhibition of recombinant Sirt1 in vitro ([1]; TSA up to 10 uM): does not inhibit
IC50 ([1]; substrate FldSirt1, 45 minutes, read-out: IC50 against recombinant Sirt1): > 10 µM
inhibition of recombinant Sirt2 in vitro ([2]; TSA up to 10 uM): does not inhibit
IC50 ([2]; substrate FldSirt2, 45 minutes, read-out: IC50 against recombinant Sirt2): > 10 µM
inhibition of whole cell SirT1 activity ([4]; 1.5 hours pre-incubation, Fluor-de-Lys-SirT1 500 uM): not
